# Biological target: T1, α4β7 (adhesion of RPMI cells to CS-1) (Homo sapiens, UniProt P13612+P26010)
# T1 construct: endogenous in cells
# T1 sequence (P13612 34-1032): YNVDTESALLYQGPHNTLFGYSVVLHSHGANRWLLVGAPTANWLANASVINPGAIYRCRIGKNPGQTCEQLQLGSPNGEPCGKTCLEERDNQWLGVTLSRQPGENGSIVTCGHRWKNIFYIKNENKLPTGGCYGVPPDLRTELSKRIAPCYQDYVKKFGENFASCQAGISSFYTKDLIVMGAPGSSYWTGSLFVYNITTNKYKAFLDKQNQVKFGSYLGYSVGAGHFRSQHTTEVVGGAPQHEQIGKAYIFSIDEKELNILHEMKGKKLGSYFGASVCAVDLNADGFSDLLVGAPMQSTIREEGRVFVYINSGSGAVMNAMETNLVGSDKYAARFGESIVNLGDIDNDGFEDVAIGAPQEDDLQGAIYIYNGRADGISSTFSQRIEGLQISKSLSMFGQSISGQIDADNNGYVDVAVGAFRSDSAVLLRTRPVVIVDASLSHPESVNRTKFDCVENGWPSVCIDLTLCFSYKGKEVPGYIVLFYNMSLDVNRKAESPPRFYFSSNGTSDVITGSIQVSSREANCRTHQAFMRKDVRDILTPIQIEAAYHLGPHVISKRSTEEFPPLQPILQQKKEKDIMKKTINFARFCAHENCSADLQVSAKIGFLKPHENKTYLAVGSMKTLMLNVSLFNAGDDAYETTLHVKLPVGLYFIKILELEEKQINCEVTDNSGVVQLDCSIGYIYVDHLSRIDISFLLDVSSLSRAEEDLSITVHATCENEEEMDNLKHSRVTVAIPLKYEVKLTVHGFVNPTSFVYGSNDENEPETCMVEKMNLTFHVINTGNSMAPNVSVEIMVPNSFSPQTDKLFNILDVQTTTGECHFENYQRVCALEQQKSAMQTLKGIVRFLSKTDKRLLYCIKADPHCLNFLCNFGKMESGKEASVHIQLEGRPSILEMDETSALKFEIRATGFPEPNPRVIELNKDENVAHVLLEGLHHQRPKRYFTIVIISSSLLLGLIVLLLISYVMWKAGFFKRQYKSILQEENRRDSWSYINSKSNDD
# T1 sequence (P26010 20-798): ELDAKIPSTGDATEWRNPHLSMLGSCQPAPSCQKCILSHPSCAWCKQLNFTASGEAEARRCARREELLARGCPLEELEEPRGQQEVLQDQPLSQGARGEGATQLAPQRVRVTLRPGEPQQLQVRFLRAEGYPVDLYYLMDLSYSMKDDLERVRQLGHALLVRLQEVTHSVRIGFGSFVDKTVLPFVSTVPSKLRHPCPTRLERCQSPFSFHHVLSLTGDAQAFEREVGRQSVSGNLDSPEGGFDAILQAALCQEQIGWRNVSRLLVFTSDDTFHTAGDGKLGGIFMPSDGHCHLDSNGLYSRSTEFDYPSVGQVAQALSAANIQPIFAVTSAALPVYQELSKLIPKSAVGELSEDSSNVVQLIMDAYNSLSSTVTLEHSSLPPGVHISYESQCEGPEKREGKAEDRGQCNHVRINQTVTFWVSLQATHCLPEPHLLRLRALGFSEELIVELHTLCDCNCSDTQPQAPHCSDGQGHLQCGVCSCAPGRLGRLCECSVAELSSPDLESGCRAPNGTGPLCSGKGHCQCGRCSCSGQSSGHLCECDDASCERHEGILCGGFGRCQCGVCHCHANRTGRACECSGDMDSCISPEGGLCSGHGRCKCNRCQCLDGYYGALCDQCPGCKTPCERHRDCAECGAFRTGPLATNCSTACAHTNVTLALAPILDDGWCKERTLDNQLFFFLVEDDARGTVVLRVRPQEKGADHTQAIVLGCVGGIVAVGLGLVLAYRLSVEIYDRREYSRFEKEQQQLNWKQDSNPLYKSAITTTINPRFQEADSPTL
# Assay: RPMI-CS-1 cell adhesion assay
# Format: cell-based
# Conditions: adhesion of RPMI B-cell line (expresses α4β7) to CS-1 peptide coated microwells; read-out: RPMI-CS-1 IC50 value range
row,IC50 [nM],Structure (SMILES)
1,< 300,"COc1ccccc1-c1ccc(C[C@H](NC(=O)c2c(Cl)cc(NS(=O)(=O)C(F)(F)F)cc2Cl)C(=O)O)cc1 [Example 182, N-[2,6-Dichloro-4-[(trifluoromethanesulfonyl)amino]benzoyl]-4-(2-methoxyphenyl)-L-phenylalanine]"
2,< 300,"COc1cccc(OC)c1-c1ccc(C[C@H](NC(=O)c2ccc(NS(=O)(=O)C(F)(F)F)cc2Cl)C(=O)O)cc1 [Example 183, N-[2-Chloro-4-[(trifluoromethanesulfonyl)amino]-benzoyl]-4-(2,6-dimethoxyphenyl)-L-phenylalanine]"
3,< 300,"COc1cccc(OC)c1-c1ccc(C[C@H](NC(=O)c2c(Cl)cc(NS(=O)(=O)C(F)(F)F)cc2Cl)C(=O)O)cc1 [Example 184, N-[2,6-Dichloro-4-[(trifluoromethanesulfonyl)amino]benzoyl]-4-(2,6-dimethoxyphenyl)-L-phenylalanine]"
4,300 to 1000,"COc1ccccc1-c1ccc(C[C@@H](NC(=O)c2cccc(NS(=O)(=O)C(F)(F)F)c2Cl)C(=O)O)cc1 [Example 186, N-[2-Chloro-3-[(trifluoromethanesulfonyl)amino]-benzoyl]-4-(2-methoxyphenyl)-D-phenylalanine]"
5,< 300,"COc1ccccc1-c1ccc(C[C@H](NC(=O)c2ccc(NS(=O)(=O)c3ccc(C(F)(F)F)cc3)cc2Cl)C(=O)O)cc1 [Example 187, N-[2-Chloro-4-[[(4-trifluoromethylphenyl)sulfonyl]amino]benzoyl]-4-(2-methoxyphenyl)-L-phenylalanine]"
6,< 300,"COc1ccccc1-c1ccc(C[C@H](NC(=O)c2ccc(NS(=O)(=O)c3ccc(C)cc3)cc2Cl)C(=O)O)cc1 [Example 188, N-[2-Chloro-4-(tosylamino)benzoyl]-4-(2-methoxyphenyl)-L-phenylalanine]"
7,< 300,"COc1ccccc1-c1ccc(C[C@H](NC(=O)c2ccc(NS(=O)(=O)c3ccc(F)cc3)cc2Cl)C(=O)O)cc1 [Example 189, N-[2-Chloro-4-[[(4-fluorophenyl)sulfonyl]amino]benzoyl]-4-(2-methoxyphenyl)-L-phenylalanine]"
8,< 300,"COc1ccc(S(=O)(=O)Nc2ccc(C(=O)N[C@@H](Cc3ccc(-c4ccccc4OC)cc3)C(=O)O)c(Cl)c2)cc1 [Example 190, N-[2-Chloro-4-[[(4-methoxyphenyl)sulfonyl]amino]-benzoyl]-4-(2-methoxyphenyl)-L-phenylalanine]"
9,< 300,"COc1ccccc1-c1ccc(C[C@H](NC(=O)c2ccc(NS(=O)(=O)c3cccs3)cc2Cl)C(=O)O)cc1 [Example 191, N-[2-Chloro-4-[(2-thienylsulfonyl)amino]benzoyl]-4-(2-methoxyphenyl)-L-phenylalanine]"
10,< 300,"COc1ccccc1-c1ccc(C[C@H](NC(=O)c2ccc(NS(=O)(=O)c3ccccc3C)cc2Cl)C(=O)O)cc1 [Example 192, N-[2-Chloro-4-[[(2-methylphenyl)sulfonyl]amino]benzoyl]-4-(2-methoxyphenyl)-L-phenylalanine]"
11,1000 to 5000,"COc1ccccc1-c1ccc(C[C@H](NC(=O)c2ccc(NC(=S)NCc3ccccc3)cc2Cl)C(=O)O)cc1 [Example 194, N-[4-(3-Benzylthioureido)-2-chlorobenzoyl]-4-(2-methoxyphenyl)-L-phenylalanine]"
12,300 to 1000,COc1ccccc1-c1ccc(C[C@H](NC(=O)c2ccc(NC(=S)NC(C)C)cc2Cl)C(=O)O)cc1 [Example 195]
13,< 300,COc1ccccc1-c1ccc(C[C@H](NC(=O)c2ccc(O)cc2Cl)C(=O)O)cc1 [Example 209]
14,1000 to 5000,COc1ccccc1-c1ccc(C[C@H](NC(=O)c2ccc(S(N)(=O)=O)cc2)C(=O)O)cc1 [Example 210]
15,< 300,COc1ccccc1-c1ccc(C[C@H](NC(=O)c2ccc(S(C)(=O)=O)cc2Cl)C(=O)O)cc1 [Example 211]
16,300 to 1000,"O=Cc1sccc1-c1ccc(C[C@H](NC(=O)c2c(Cl)cccc2Cl)C(=O)O)cc1 [Example 214, N-(2,6-Dichlorobenzoyl)-4-(2-formyl-3-thienyl)-L-phenylalanine]"
17,1000 to 5000,"O=C(N[C@@H](Cc1ccc(-c2ccncc2)cc1)C(=O)O)c1c(Cl)cccc1Cl [Example 217, N-(2,6-Dichlorobenzoyl)-4-(4-pyridyl)-L-phenylalanine]"
18,1000 to 5000,"O=C(N[C@@H](Cc1ccc(-c2ccsc2CO)cc1)C(=O)O)c1c(Cl)cccc1Cl [Example 218, N-(2,6-Dichlorobenzoyl)-4-(2-hydroxymethyl-3-thienyl)-L-phenylalanine]"
19,300 to 1000,"N#Cc1sccc1-c1ccc(C[C@H](NC(=O)c2c(Cl)cccc2Cl)C(=O)O)cc1 [Example 219, N-(2,6-Dichlorobenzoyl)-4-(2-cyano-3-thienyl)-L-phenylalanine]"
20,< 300,"COc1cc(OCc2ccsc2)cc(OC)c1-c1ccc(C[C@H](NC(=O)c2c(Cl)cccc2Cl)C(=O)O)cc1 [Example 220, N-(2,6-Dichlorobenzoyl)-4-[2,6-dimethoxy-4-(3-thienylmethoxy)phenyl]-L-phenylalanine]"
21,1000 to 5000,"COc1cc(OCc2c(Cl)cccc2Cl)cc(OC)c1-c1ccc(C[C@H](NC(=O)c2c(Cl)cccc2Cl)C(=O)O)cc1 [Example 221, N-(2,6-Dichlorobenzoyl)-4-[2,6-dimethoxy-4-[(2,6-dichlorophenyl)methoxy]phenyl]-L-phenylalanine]"
22,< 300,"COc1cc(OCCO)cc(OC)c1-c1ccc(C[C@H](NC(=O)c2c(Cl)cccc2Cl)C(=O)O)cc1 [Example 222, N-(2,6-Dichlorobenzoyl)-4-[2,6-dimethoxy-4-(2-hydroxyethoxy)phenyl]-L-phenylalanine]"
23,< 300,"COc1cc(OCCN(C)C)cc(OC)c1-c1ccc(C[C@H](NC(=O)c2c(Cl)cccc2Cl)C(=O)O)cc1 [Example 223, N-(2,6-Dichlorobenzoyl)-4-[2,6-dimethoxy-4-[2-(N,N-dimethylamino)ethoxy]phenyl]-L-phenylalanine]"
24,1000 to 5000,"CC(C)Oc1cccc(-c2ccc(C[C@H](NC(=O)c3c(Cl)cccc3Cl)C(=O)O)cc2)c1 [Example 224, N-(2,6-Dichlorobenzoyl)-4-(3-i-propoxyphenyl)-L-phenylalanine]"
25,1000 to 5000,"CC(C)Oc1ccccc1-c1ccc(C[C@H](NC(=O)c2c(Cl)cccc2Cl)C(=O)O)cc1 [Example 225, N-(2,6-Dichlorobenzoyl)-4-(2-i-propoxyphenyl)-L-phenylalanine]"
26,< 300,"COc1cccc(OC(C)C)c1-c1ccc(C[C@H](NC(=O)c2c(Cl)cccc2Cl)C(=O)O)cc1 [Example 226, N-(2,6-Dichlorobenzoyl)-4-(2-i-propyloxy-6-methoxyphenyl)-L-phenylalanine]"
27,< 300,"CN(C)CCOc1ccc2c(c1-c1ccc(C[C@H](NC(=O)c3c(Cl)cccc3Cl)C(=O)O)cc1)OCO2 [Example 234, N-(2,6-Dichlorobenzoyl)-4-[2,3-methylenedioxy-6-[2-(N,N-dimethylamino)ethoxy]phenyl]-L-phenylalanine]"
28,< 300,"COCOc1ccc2c(c1-c1ccc(C[C@H](NC(=O)c3c(Cl)cccc3Cl)C(=O)O)cc1)OCO2 [Example 235, N-(2,6-Dichlorobenzoyl)-4-[2,3-methylenedioxy-6-(methoxymethoxy)phenyl]-L-phenylalanine]"
29,< 300,"O=C(N[C@@H](Cc1ccc(-c2c(O)ccc3c2OCO3)cc1)C(=O)O)c1c(Cl)cccc1Cl [Example 236, N-(2,6-Dichlorobenzoyl)-4-(2,3-methylenedioxy-6-hydroxyphenyl)-L-phenylalanine]"
